20 compounds from patent US8815919B2, “Oxadiazole derivatives” (Merck Serono SA, priority 2009, dated 2014) can be followed below.

pEC50: −log10 of the molar value. Where a name gives a salt, the structure may show the parent alone. Read-outs that look alike come from different tables or passages of the source.

Test [1] has as its target T1, S1P1 (Homo sapiens, UniProt P21453). Nature of the test: Receptor binding assay, [33P]sphingosine 1-phosphate competition, S1P1 membranes, WGA SPA beads. In outline:
(§1)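 Competition of [33P]S1P ([…]) on CHO cell membranes with WGA SPA beads in 50 mM HEPES pH 7.5, 5 mM MgCl2, 100 mM NaCl, 0.4% fatty acid-free BSA; 60 min at RT. Triplicates normalised to total binding and nonspecific binding (1000-fold excess unlabeled S1P).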
Target sequence in this assay (P21453 whole entry, species assumed): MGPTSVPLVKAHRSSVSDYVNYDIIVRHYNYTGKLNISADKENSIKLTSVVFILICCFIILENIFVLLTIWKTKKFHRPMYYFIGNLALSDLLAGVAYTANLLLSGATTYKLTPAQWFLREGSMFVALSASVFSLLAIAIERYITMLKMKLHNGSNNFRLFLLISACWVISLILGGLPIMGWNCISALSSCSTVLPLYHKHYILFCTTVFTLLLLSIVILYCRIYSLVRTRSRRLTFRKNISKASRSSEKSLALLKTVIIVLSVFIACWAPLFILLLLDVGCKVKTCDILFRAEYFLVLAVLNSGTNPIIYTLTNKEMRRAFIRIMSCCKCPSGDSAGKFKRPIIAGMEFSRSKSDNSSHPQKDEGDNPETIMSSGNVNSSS

For test [2], the target named is T2, S1P3 (Homo sapiens, UniProt Q99500). Nature of the test: 35S-GTPγS binding on membranes of CHO cells expressing S1P3. In kind it is biochemical. Particulars: read-out: S1P3/GTPG EC50. The method, then: (§2) Membranes were prepared from CHO cells expressing S1P1 or S1P3 for use in ligand and […] binding studies. Cells were suspended in 50 mM TRIS, pH 7.4, 2 mM EDTA, 250 mM Sucrose (buffer A) and 1× Complete protease inhibitor cocktail (Roche), and disrupted at 4° C. by N2 decompression using a cell disruption bomb (Parr Instrument). Following centrifugation at 1000 RPM for 10 min at 4° C., the supernatant was diluted (2×) in buffer A and centrifuged again at 19000 RPM for 75 min at 4° C. The pellet was then suspended in 10 mM HEPES, pH 7.4, 1 mM EDTA, 250 mM Sucrose (Buffer B), and 1× Complete EDTA-free protease inhibitor cocktail and homogenized using a potter. Membranes were flash frozen in liquid N2 and stored at −80° C.
T2 sequence (Q99500 whole entry, species assumed): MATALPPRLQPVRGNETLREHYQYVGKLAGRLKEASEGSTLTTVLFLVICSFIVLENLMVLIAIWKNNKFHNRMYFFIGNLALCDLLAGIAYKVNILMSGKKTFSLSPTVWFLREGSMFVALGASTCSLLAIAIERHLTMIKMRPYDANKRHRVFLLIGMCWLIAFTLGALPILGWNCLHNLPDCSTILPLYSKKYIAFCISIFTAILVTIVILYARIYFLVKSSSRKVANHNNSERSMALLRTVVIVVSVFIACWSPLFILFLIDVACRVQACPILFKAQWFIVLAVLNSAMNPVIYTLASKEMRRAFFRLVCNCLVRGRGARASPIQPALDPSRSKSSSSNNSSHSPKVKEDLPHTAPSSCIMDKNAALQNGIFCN
(§3) Membranes (1 to 10 μg protein) prepared as described above, were incubated in 96-well Scintiplates (PerkinElmer) with test compounds diluted in DMSO, in 140 μl of 20 mM HEPES, pH 7.4, 10 mM MgCl2, 2 μg/well Saponin, 0.2% fatty acid free BSA (Assay buffer), 125 mM NaCl and 1.5 μM GDP. The assay was initiated with the addition of 60 μl of 1.5 nM [35S]-GTPγS (1100 Ci/mmol; GE Healthcare) in assay buffer. After 60 min incubation at 30° C. on a shaker, plates were centrifuged for 10 min at 2000 RPM. Supernatant was discarded and membrane bound radioactivity was measured on a PerkinElmer 1450 MicroBeta counter. Triplicate samples were averaged and expressed as % response relative to S1P activation in absence of compound (n=2).
(§4) The “potency” or the “activity” of the compounds is determined by the EC50 values as evaluated in the above described 35S-GTPγS binding assay.

In test [3] the target is T1, S1P1. Nature of the test: 35S-GTPγS binding on membranes of CHO cells expressing S1P1. In kind it is biochemical. The following applies: read-out: S1P1/GTPG EC50. The method, then:
as §2, §3, §4
For orientation: Binding of GTPγS marks nucleotide exchange on a G protein.
Target sequence in this assay (P21453 whole entry, species assumed): as the sequence (P21453 whole entry, species assumed) above

Test [4] has as its target T1, S1P1. Nature of the test: S1P1 internalization assay in S1P1-U2OS cells (S1P1-EGFP), cell imaging. Particulars: 1 hour incubation. In kind it is cell-based. Further details: host or cells: U2OS (human bone osteosarcoma epithelial cells), CMV promoter, geneticin selection. In outline:
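U2OS cells stably expressing human S1P1-EGFP, plated overnight in 1% FCS medium, then serum-starved 2 h in 0.1% fatty-acid-free BSA before 1 h compound exposure at 37 °C. After PFA fixation and Hoechst staining, internalization imaged as EGFP spot count per nucleus.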
Target sequence in this assay (P21453 whole entry): as the sequence (P21453 whole entry, species assumed) above

The target of test [5] is T2, S1P3. The test is described as follows: Receptor binding assay, [33P]sphingosine 1-phosphate competition, S1P3 membranes, WGA SPA beads. The following applies: 384 well-plate; read-out: S1P3 binding Ki (M) (384 well-plate). In outline:
as §1

Setting [6] is: 96 well-plate, read-out: S1P1 binding Ki (M) (96 well-plate).
[7] abbreviates: 384 well-plate, read-out: S1P1 binding Ki (M) (384 well-plate).

What is called Ki is a measure of affinity in units of concentration, obtained from inhibition or displacement. For `COCc1cc(-c2nc(-c3cccc(CN(C)CCC(=O)O)c3)no2)ccc1N1CCCCC1C` (stereo not drawn) [Example 2, N-(3-{5-[3-(methoxymethyl)-4-(2-methylpiperidin-1-yl)phenyl]-1,2,4-oxadiazol-3-yl}benzyl)-N-methyl-beta-alanine, hydrochloride salt], the Ki at S1P1 [1] (setting [6]) was 1.36e-10 M. The pEC50 at S1P3 [2] was 7.35; on S1P1 [3], 9.54.

Take `COCc1cc(-c2nc(-c3ccc(C(=O)NCCC(=O)O)c(F)c3)no2)ccc1N1CCCCC1C` (stereo not drawn) [Example 3, N-(2-fluoro-4-{5-[3-(methoxymethyl)-4-(2-methylpiperidin-1-yl)phenyl]-1,2,4-oxadiazol-3-yl}benzoyl)-beta-alanine]: at S1P1 [1] (setting [6]), the Ki came out at 8.32e-10 M. Also, the pEC50 was 8.11 on S1P1 [4] and 8.07 on S1P1 [3].

Consider `COCc1cc(-c2nc(-c3cc(F)c(F)c(OCCCC(=O)O)c3)no2)ccc1-c1ccccc1C` [Example 5, 4-(2,3-difluoro-5-{5-[2-(methoxymethyl)-2′-methylbiphenyl-4-yl]-1,2,4-oxadiazol-3-yl}phenoxy)butanoic acid], for which the Ki on S1P1 [1] (setting [6]) was 4.09e-09 M; at S1P1 [1] (setting [7]) it was 1.45e-08 M. Further, the pEC50 is 6.80 at S1P1 [4] and 7.64 at S1P1 [3].

As to `Cc1ccccc1-c1ccc(-c2nc(-c3cccc(S(C)(=O)=O)c3)no2)cc1CN(C)C` [Example 8, N,N-dimethyl-1-(2′-methyl-4-{3-[3-(methylsulfonyl)phenyl]-1,2,4-oxadiazol-5-yl}biphenyl-2-yl)methanamine], on S1P1 [3], the pEC50 was 7.93.

For `COCc1cc(-c2nc(-c3cccc(COCCC(=O)O)c3)no2)ccc1N1CCCCC1C` (stereo not shown) [Example 9, 3-[4(3-{5-[3-(methoxymethyl)-4-(2-methylpiperidin-1-yl)phenyl]-1,2,4-oxadiazol-3-yl}benzyl)oxy]propanoic acid, hydrochloride salt], the Ki on S1P1 [1] (setting [6]) stood at 8.04e-10 M. Further, at S1P1 [3], the pEC50 was 8.41.

For the compound `COCc1cc(-c2nc(-c3ccc(C(=O)NCCC(=O)O)c(Cl)c3)no2)ccc1-c1ccccc1C` [Example 15, N-(2-chloro-4-{5-[2-(methoxymethyl)-2′-methylbiphenyl-4-yl]-1,2,4-oxadiazol-3-yl}benzoyl)-beta-alanine], the Ki on S1P1 [1] (setting [6]) was 1.06e-09 M. Also, the results for the pEC50 on S1P3 [2] and on S1P1 [3] were 6.26 and 7.68, respectively.

Take `CCc1ccccc1-c1ccc(-c2nc(-c3ccc(C(=O)NCCC(=O)O)c(F)c3)no2)cc1COC` [Example 16, N-(4-{5-[2′-ethyl-2-(methoxymethyl)biphenyl-4-yl]-1,2,4-oxadiazol-3-yl}-2-fluorobenzoyl)-beta-alanine]: the Ki at S1P1 [1] (setting [6]) came to 2.22e-09 M. The pEC50 on S1P3 [2] is 6.27; on S1P1 [3] it was 8.22.

Turning to `CCC1CCCCN1c1ccc(-c2nc(-c3cccc(CN(C)CC(=O)O)c3)no2)cc1COC` (stereo not shown) [Example 17, N-(3-{5-[4-(2-ethylpiperidin-1-yl)-3-(methoxymethyl)phenyl]-1,2,4-oxadiazol-3-yl}benzyl)-N-methylglycine, hydrochloride salt], the Ki at S1P1 [1] (setting [6]) was determined as 4.46e-10 M. The pEC50 on S1P3 [2] was 6.59; on S1P1 [3] it was 8.85.

As for `CCc1ccccc1-c1ccc(-c2nc(-c3cccc(CNCCC(=O)O)c3)no2)cc1COC` [Example 18, N-(3-{5-[2′-ethyl-2-(methoxymethyl)biphenyl-4-yl]-1,2,4-oxadiazol-3-yl}benzyl)-beta-alanine, hydrochloride salt], at S1P1 [1] (setting [6]), the Ki was determined as 1.68e-10 M. The results for the pEC50 at S1P3 [2] and on S1P1 [3] were 8.30 and 9.33, respectively.

`COCc1cc(-c2nc(-c3ccc(F)c(CN(C)CCC(=O)O)c3)no2)ccc1N1CCCCC1C` (stereo not drawn) [Example 19, N-(2-fluoro-5-{5-[3-(methoxymethyl)-4-(2-methylpiperidin-1-yl)phenyl]-1,2,4-oxadiazol-3-yl}benzyl)-N-methyl-beta-alanine, dihydrochloride salt]: the Ki on S1P1 [1] (setting [6]) was found to be 1.94e-10 M. Moreover, the pEC50 on S1P3 [2] is 7.46; on S1P1 [3], 9.26.

As for `COCc1cc(-c2nc(-c3cccc(NCC(O)CO)c3)no2)ccc1-c1ccccc1C` (stereo not shown) [Example 22, 3-[(3-{5-[2-(methoxymethyl)-2′-methylbiphenyl-4-yl]-1,2,4-oxadiazol-3-yl}phenyl)amino]propane-1,2-diol], the Ki on S1P1 [1] (setting [6]) is 7.11e-10 M. Moreover, the pEC50 on S1P3 [2] was 6.53.

On to `COCc1cc(-c2nc(-c3cccc(CC(=O)NCC(=O)OC)c3)no2)ccc1-c1ccccc1C` [Example 24, methyl N-[(3-{5-[2-(methoxymethyl)-2′-methylbiphenyl-4-yl]-1,2,4-oxadiazol-3-yl}phenyl)acetyl]glycinate], for which the Ki on S1P1 [1] (setting [6]) was found to be 9.12e-10 M. On S1P1 [3], the pEC50 was 8.68.

Take `COCc1cc(-c2nc(-c3cccc(CC(=O)NCC(=O)O)c3)no2)ccc1-c1ccccc1C` [Example 26, N-[(3-{5-[2-(methoxymethyl)-2′-methylbiphenyl-4-yl]-1,2,4-oxadiazol-3-yl}phenyl)acetyl]glycine]: the pEC50 at S1P1 [3] was 7.97.

For the compound `COCc1cc(-c2nc(-c3ccc(C(=O)NCC(O)CO)c(F)c3)no2)ccc1-c1ccccc1C` (stereo not shown) [Example 27, N-(2,3-dihydroxypropyl)-2-fluoro-4-{5-[2-(methoxymethyl)-2′-methylbiphenyl-4-yl]-1,2,4-oxadiazol-3-yl}benzamide], the pEC50 on S1P1 [3] is 7.75.

Take `COCc1cc(-c2nc(-c3ccc(CN(C)CC(=O)O)cc3C(F)(F)F)no2)ccc1-c1ccccc1C` [Example 143, 2-((4-(5-(2-(methoxymethyl)-2′-methylbiphenyl-4-yl)-1,2,4-oxadiazol-3-yl)-3-(trifluoromethyl)benzyl)(methyl)amino)acetic acid]: the Ki is 2.32e-09 M on S1P1 [1] (setting [7]) and 1.83e-06 M on S1P3 [5]. Moreover, the pEC50 at S1P1 [4] is 7.07.

As to `COCc1cc(-c2nc(-c3ccc(CN(C)CC(=O)O)cc3Cl)no2)ccc1-c1ccccc1C` [Example 144, 2-((4-(5-(2-(methoxymethyl)-2′-methylbiphenyl-4-yl)-1,2,4-oxadiazol-3-yl)-3-chlorobenzyl)(methyl)amino)acetic acid], the results for the Ki at S1P1 [1] (setting [7]) and on S1P3 [5] were 1.73e-09 M and 3.55e-07 M, respectively. The compound further gave a pEC50 on S1P1 [4] of 7.59.

On to `COCc1cc(-c2nc(-c3ccc(CN(C)CC(=O)O)cc3F)no2)ccc1-c1ccccc1C` [Example 146, 2-((3-fluoro-4-(5-(2-(methoxymethyl)-2′-methylbiphenyl-4-yl)-1,2,4-oxadiazol-3-yl)benzyl)(methyl)amino)acetic acid, hydrochloride salt], for which the Ki on S1P1 [1] (setting [7]) was determined as 9.36e-10 M; at S1P3 [5], 3.68e-07 M. Moreover, the pEC50 on S1P1 [4] is 7.47.

In the case of `COCc1cc(-c2nc(-c3cc(F)c(CNCC(=O)O)c(F)c3)no2)ccc1-c1ccccc1C` [Example 147, 2-(2,6-difluoro-4-(5-(2-(methoxymethyl)-2′-methylbiphenyl-4-yl)-1,2,4-oxadiazol-3-yl)benzylamino)acetic acid, hydrochloride salt], the Ki on S1P1 [1] (setting [7]) worked out at 6.95e-10 M; on S1P3 [5], 1.35e-07 M. At S1P1 [4], this compound gave a pEC50 of 8.81.

On to `COCc1cc(-c2nc(-c3ccc(CN(C)CC(=O)O)c(F)c3F)no2)ccc1-c1ccccc1C` [Example 149, 2-((2,3-difluoro-4-(5-(2-(methoxymethyl)-2′-methylbiphenyl-4-yl)-1,2,4-oxadiazol-3-yl)benzyl)(methyl)amino)acetic acid, hydrochloride salt], for which the inhibitory constant (Ki) at S1P1 [1] (setting [7]) was found to be 1.26e-09 M; at S1P3 [5], 1.48e-07 M. At S1P1 [4], this compound showed a pEC50 of 8.02.

As for `COCc1cc(-c2nc(-c3cc(F)c(CN(C)CC(=O)O)c(F)c3)no2)ccc1-c1ccccc1C` [Example 151, 2-((2,6-difluoro-4-(5-(2-(methoxymethyl)-2′-methylbiphenyl-4-yl)-1,2,4-oxadiazol-3-yl)benzyl)(methyl)amino)acetic acid, hydrochloride salt], the results for the Ki on S1P1 [1] (setting [7]) and on S1P3 [5] were 3.53e-09 M and 3.9e-07 M, respectively. On S1P1 [4], this compound had a pEC50 of 7.67.
